Laboratory results taken from the SangsterLogP compilation.

Test: method code SF-HPLC, from DOI: 10.1111/j.2042-7158.1987.tb06262.x, PMID: 2884287
Details: pH 3.0

In order of rising logD:
1. CN(C=O)c1c(N)[nH]c(=O)n(C)c1=O  -2.03
2. Cn1c(=O)[nH]c(=O)c2c1[nH]c(=O)n2C  -1.33
3. CN(C=O)c1c(N)n(C)c(=O)n(C)c1=O  -1.32
4. CN(C=O)c1c(N)n(C)c(=O)[nH]c1=O  -1.3
5. Cn1c(=O)[nH]c2[nH]c(=O)[nH]c(=O)c21  -1.18
6. Cn1c(=O)[nH]c(=O)c2[nH]c(=O)[nH]c21  -1.08
7. Cn1cnc2[nH]c(=O)[nH]c(=O)c21  -0.89
8. Cn1c(N)c(NC=O)c(=O)n(C)c1=O  -0.64
9. Cn1c(=O)[nH]c2[nH]c(=O)[nH]c2c1=O  -0.57
10. Cn1c(=O)c2[nH]c(=O)[nH]c2n(C)c1=O  -0.52
11. Cn1c(=O)c2c([nH]c(=O)n2C)n(C)c1=O  -0.37
12. Cn1c(=O)[nH]c2nc[nH]c2c1=O  -0.27
13. Cn1c(=O)[nH]c2[nH]c(=O)n(C)c2c1=O  -0.22
